Reference: patent US12201629B2 (priority 2017, dated 2025)

Test: Example 2: pharmacokinetics of oral and intravenous buprenorphine hydrochloride under naltrexone blockade
Conditions: injection, equimolar to 0.3 mg buprenorphine base, over 15 min; n = 8

CO[C@@]12CC[C@@]3(C[C@@H]1[C@](C)(O)C(C)(C)C)[C@H]1Cc4ccc(O)c5c4[C@@]3(CCN1CC1CC1)[C@H]2O5.Cl [Buprenorphine i.v., Buprenorphine HCl]
Buprenorphine Mean Cmax: 4.26 ng/mL | Buprenorphine Mean Tmax: 20.2 min
